Laboratory results as given in patent EP0626016B1, “[…] […]” (BRITISH TECHNOLOGY GROUP LIMITED, priority 1992, dated 1993).
Where “and” joins values, the source holds several entries; their conditions need not be identical. Identical values can stand only once. Like-named read-outs stand apart in the source and are kept apart here.

Target: T1, HRP Type VIA (Armoracia rusticana, UniProt P00433)
T1 sequence (P00433 31-338): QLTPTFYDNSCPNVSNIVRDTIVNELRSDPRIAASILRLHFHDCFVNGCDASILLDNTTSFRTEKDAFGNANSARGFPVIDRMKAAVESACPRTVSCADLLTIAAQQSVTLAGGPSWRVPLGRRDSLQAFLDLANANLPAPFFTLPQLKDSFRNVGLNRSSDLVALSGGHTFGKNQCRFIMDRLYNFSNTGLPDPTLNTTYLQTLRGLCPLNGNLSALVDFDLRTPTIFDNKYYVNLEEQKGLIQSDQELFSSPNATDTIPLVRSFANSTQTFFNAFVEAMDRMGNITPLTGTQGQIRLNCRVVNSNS

[1] = 0.01 mg/ml, 10µl test compound, control value in brackets not reported
[2] = 0.1 mg/ml, 10µl test compound, control value in brackets not reported
[3] = 1 mg/ml, 10µl test compound, control value in brackets not reported

Row | Compound | (a) Decrease in background (without HRP with test cpd.) (0.01 mg/ml, 10µl test compound) | (b) Increase in signal (with HRP, with test cpd.) (0.01 mg/ml, 10µl test compound) | (c) Increase in signal: background ratio (0.01 mg/ml, 10µl test compound) | (a) Decrease in background (without HRP with test cpd.) (0.1 mg/ml, 10µl test compound) | (b) Increase in signal (with HRP, with test cpd.) (0.1 mg/ml, 10µl test compound) | (c) Increase in signal: background ratio (0.1 mg/ml, 10µl test compound) | (a) Decrease in background (without HRP with test cpd.) (1 mg/ml, 10µl test compound) | (b) Increase in signal (with HRP, with test cpd.) (1 mg/ml, 10µl test compound) | (c) Increase in signal: background ratio (1 mg/ml, 10µl test compound) | (d) Signal: Background: ratio (control = with no enhancer) [1] | (d) Signal: Background: ratio (control = with no enhancer) [2] | (a) Decrease in background (without HRP with test cpd.) | (b) Increase in signal (with HRP, with test cpd.) | (d) Signal: Background: ratio (control = with no enhancer) | (c) Increase in signal: background ratio | (d) Signal: Background: ratio (control = with no enhancer) [3]
1 | c1ccc2c(OB(Oc3cccc4ccccc34)c3cccc4ccccc34)cccc2c1 [Compound 1047, di-(1-naphthoxy)-l-naphthylborane] | Y | N | N (N = no) | Y | N | N (N = no) | Y | N | N (N = no) |  |  |  |  |  |  | 
2 | Cc1ccc(B(O)O)cc1 [Compound 1034, 4-methylphenylboronic acid] | Y | N | Y (Column (c) shows whether there was an increase in the signal:background ratio by over 25% of the control value (Y = yes) | Y | Y | Y (Column (c) shows whether there was an increase in the signal:background ratio by over 25% of the control value (Y = yes) | Y | N | N (N = no) | 3.6 (1.9) | 41.2 (2.9) |  |  |  |  | 
3 | Clc1cc(Cl)cc(OB(Oc2cc(Cl)cc(Cl)c2)c2cc(Cl)cc(Cl)c2)c1 [Compound 1040, di-(3',5'-dichlorophenoxy)-3,5-dichlorophenylborane] |  |  |  |  |  |  |  |  |  |  |  | Y | N | 4.7 (4.5) and 3.9 (2.9) |  | 
4 | OB(O)c1ccc(Cl)cc1 [Compound 1029, 4-chlorophenylboronic acid] |  |  |  |  |  |  |  |  |  |  |  | Y | Y |  | Y (key: Column (c) shows whether there was an increase in the signal:background ratio by over 25% of the control value (Y = yes; N = no) | 
5 | OB(O)c1cc(Cl)cc(Cl)c1 [Compound 1025, 3,5-dichlorophenylboronic acid] | Y | N | N (N = no) | Y | N | N (N = no) | Y | N | N (N = no) | 2.1 (2.0) |  |  |  |  |  | 
6 | OB(O)c1cccc2ccccc12 [Compound 1002, 1-naphthaleneboronic acid] | Y | N | N (N = no) | Y | N | Y (Column (c) shows whether there was an increase in the signal:background ratio by over 25% of the control value (Y = yes) | Y | N | N (N = no) | 2.5 | 3.4 |  |  |  |  | 0.7 (2.3)
7 | bis(catechol)borate [Compound 1013] |  |  |  |  |  |  |  |  |  |  |  | Y | N |  |  | 
8 | COc1ccc(Br)cc1B(O)O [Compound 1003, 5-bromo-2-methoxybenzeneboronic acid] | Y | N | Y (Column (c) shows whether there was an increase in the signal:background ratio by over 25% of the control value (Y = yes) | Y | N | Y (Column (c) shows whether there was an increase in the signal:background ratio by over 25% of the control value (Y = yes) | Y | N | N (N = no) | 8.6 | 12.1 |  |  |  |  | 2.6 (2.3)
9 | OB(O)c1ccccc1Cl [Compound 1027, 2-chlorophenylboronic acid] | Y | N | N (N = no) | Y | N | N (N = no) | Y | N | N (N = no) | 2.1 (2.0) | 3.2 (2.9) |  |  |  |  | 
10 | Clc1ccc(OB(Oc2ccc(Cl)cc2)c2ccc(Cl)cc2)cc1 [Compound 1041, 4-chlorophenyl-di-(4'-chlorophenoxy)borane] | Y | Y | Y (Column (c) shows whether there was an increase in the signal:background ratio by over 25% of the control value (Y = yes) | Y | Y | Y (Column (c) shows whether there was an increase in the signal:background ratio by over 25% of the control value (Y = yes) | Y | Y | Y (Column (c) shows whether there was an increase in the signal:background ratio by over 25% of the control value (Y = yes) | 6.3 (1.9) | 360.2 (2.8) |  |  |  |  | 2606.2(4.5)
